Experimental findings from patent publication US20150342897A1, “POLYPEPTIDE LOADED POCA NANOPARTICLES FOR ORAL ADMINISTRATION” (Glaxo Group Limited, priority 2012, published 2015) are described below.

This experiment is described as follows: Reduction in blood glucose levels after single i.v. dose. The class given is in vivo, C57BL/6 mice. As to conditions: single i.v. dose equivalent to 1 μg/100 μl. The protocol:
C57BL/6 mice were given a single i.v. dose of exendin-4 loaded POCA nanoparticles (equivalent to 2 μg peptide/100 μl), non encapsulated (free) exendin-4 peptide (equivalent to 1 μg/100 μl) or saline as a control. In order to monitor blood glucose levels, 2-3 μl blood samples were taken from the peripheral tail vein of each animal prior to dosing and again at 0.5, 1, 2, 3, 4 and 8 hours post dose. Each sample was analysed using a hand held glucose monitor (BAYER […] BREEZE 2TM).

For the substance exendin-4 [non encapsulated exendin-4], the “reduction in blood glucose levels from baseline” value (2 hours post dose, FIG. 3) is approximately 30%. Also, under “8 hours post dose”, the “blood glucose levels at 8 hours post dose” value is given as “returned to baseline”.
